The values below are quoted from earlier work in patent US20070141149A1, “Controlled-release pharmaceutical formulation” (priority 2003, published 2007).

Read-outs that look alike come from different tables or passages of the source.

For the data set the following is noted: orally administered.

As usually defined, the bioavailability is the share of a dose that reaches the circulation, judged against a reference dose that is usually intravenous. For the molecule `CCOc1ccccc1OCCN[C@H](C)Cc1ccc(OC)c(S(N)(=O)=O)c1` [tamsulosin], the bioavailability (on an empty stomach) was about 100% and the bioavailability entry (taken during meals) is given as “decreased”. Further, the cmax result (taken during meals) is “decreased”.
